Source: paper PMC3308910 (2012)

What was measured:
[1] = target: cytochrome bc1 complex (ubiquinol:cytochrome c oxidoreductase; respiratory complex III) (Homo sapiens, UniProt P00156); type: biochemical
[2] = target: T1, cytochrome bc1 complex (ubiquinol:cytochrome c oxidoreductase; respiratory complex III) (Plasmodium falciparum, UniProt Q02768); type: biochemical
T1 sequence (Q02768 1-376): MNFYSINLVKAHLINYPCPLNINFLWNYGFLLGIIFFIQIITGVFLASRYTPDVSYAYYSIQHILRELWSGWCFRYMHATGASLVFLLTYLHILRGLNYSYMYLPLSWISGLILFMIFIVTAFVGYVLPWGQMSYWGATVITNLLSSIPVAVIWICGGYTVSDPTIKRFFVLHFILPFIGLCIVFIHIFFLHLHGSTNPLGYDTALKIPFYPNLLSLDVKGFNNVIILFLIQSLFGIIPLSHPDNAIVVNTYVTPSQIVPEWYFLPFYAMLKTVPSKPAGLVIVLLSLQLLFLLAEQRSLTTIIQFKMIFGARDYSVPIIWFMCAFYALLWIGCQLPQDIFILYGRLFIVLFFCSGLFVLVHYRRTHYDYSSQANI

cytochrome bc1 complex (ubiquinol:cytochrome c oxidoreductase; respiratory complex III) (Homo sapiens, UniProt P00156), sequence (P00156 whole entry, one chain of several): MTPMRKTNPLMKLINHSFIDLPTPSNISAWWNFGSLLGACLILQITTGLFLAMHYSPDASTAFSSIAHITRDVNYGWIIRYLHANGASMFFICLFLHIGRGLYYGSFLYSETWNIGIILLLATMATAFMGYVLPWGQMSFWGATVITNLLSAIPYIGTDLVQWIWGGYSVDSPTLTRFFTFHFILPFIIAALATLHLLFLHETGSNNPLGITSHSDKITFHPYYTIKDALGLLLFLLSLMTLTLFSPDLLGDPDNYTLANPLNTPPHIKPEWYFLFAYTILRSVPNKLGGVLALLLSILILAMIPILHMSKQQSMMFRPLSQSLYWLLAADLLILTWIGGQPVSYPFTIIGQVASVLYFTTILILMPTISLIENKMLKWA

SMILES	IC50 [1]	IC50 [2]
O=C1C(O)=C([C@H]2CC[C@H](c3ccc(Cl)cc3)CC2)C(=O)c2ccccc21 [Atovaquone]	327 ± 30 nM	–
CCCCCCCCCCOc1cc2c(O)c(C(=O)OCC)cnc2cc1OCC [Decoquinate]	–	2 ± 0.5 nM
